Data on one compound can be found in patent US20230064879A1, “NANODRUG PARTICLES, THE USE THEREOF, AND PREPARATION METHOD THEREOF” (NATIONAL YANG MING CHIAO TUNG UNIVERSITY, priority 2021, published 2023).

For one data set, the system named is HT-29 cells. In words: Cytotoxicity test on HT-29 cells. It counts as cell-based. Conditions: Homo sapiens, 24 hours after drug applied.
Data set [1] can be described thus: In vitro release of camptothecin (dialysis bag, Korsmeyer-Peppas model). The data set is classed as physicochemical. Conditions: PBS pH 7.4, 37° C., 168 hours, MWCO 2,000 Da. As for the experimental part: The in vitro release of camptothecin under different conditions were compared; the conditions were: […] The test duration time was 168 hours, the test temperature was 37° C., and the dialysis bag with molecular weight cut-off (MWCO) of 2,000 Da was used.

The next data set relates to A549 cells. In words: Cytotoxicity test on A549 cells. The data set is classed as cell-based. The note with it: Homo sapiens, 24 hours after drug administration. As for the experimental part:
The amount of the cells in each test well was 100 cells. 24 hours after the drug administration, the cell counts were measured.

≈ marks a conversion by molar mass, not a printed value.

A word on the IC50: it is the point on the concentration scale where inhibition reaches its midpoint. A higher IC50 goes with a need for much substance. In the case of `CC[C@@]1(O)C(=O)OCc2c1cc1n(c2=O)Cc2cc3ccccc3nc2-1` [Camptothecin], the figures for the half-inhibitory concentration (IC50) in the data set on HT-29 cells and in the data set with A549 cells were 52.3 µg/mL (≈ 150 µM) and 40.1 µg/mL (≈ 115 µM), respectively. The “K (Korsmeyer-Peppas model)” value in data set [1] was 44.25. In addition, in data set [1], the “n (Korsmeyer-Peppas model)” value is 0.09985.
